Common to all, as to type: cell-based
Experiment [1] has as its system Pseudomonas aeruginosa ATCC 9027. The experiment in a line: MIC / synergy (FIC index) microplate growth test, optical density at 620 nm, Pseudomonas aeruginosa. From the text: (§1) FIC Index=(MICa with B/MICa)+(MICb with A/MICb)
(§2) with: • MICa with B: minimum concentration of product A in the combination A+B which makes it possible to obtain an inhibitory effect • MICb with A: minimum concentration of product B in the combination A+B which makes it possible to obtain the inhibitory effect. • MICa: minimum inhibitory concentration of product A alone. • MICb: minimum inhibitory concentration of product B alone.
(§3) As regards the combinations tested, MICa with b and MICb with a are the respective concentrations of A and of B in the combinations which make it possible to obtain a microbial growth percentage of less than or equal to 25%.
(§4) When the FIC index value is less than or equal to 1, it is considered that the combination of test compounds has a synergistic effect.
The microbial strain Pseudomonas aeruginosa ATCC 9027 and a double-concentration nutritive broth liquid culture medium were used.
(§5) A 96-well microplate and an […] of 32.5° C. are used.
(§6) The incubation time of the microplate is: • from 24 hours to 48 hours aerobically for Aspergillus niger; • from 18 to 24 hours aerobically for Candida albicans and Pseudomonas aeruginosa.
(§7) A 10% (weight/volume) stock solution was prepared by mixing 1 g of compound in 9 ml of aqueous 1% agar solution. Successive dilutions were made with the 1% agar solution. • Tests of compounds A and B alone
(§8) 50 μL of each of the daughter solutions obtained containing compound A or B are added to the microplate wells. 100 μL of Sabouraud liquid nutrient broth seeded with the strain Aspergillus niger and 50 μL of aqueous 1% agar solution are also added thereto. • Tests of compounds A and B as a mixture
(§9) 50 μL of each of the daughter solutions obtained containing compound A and 50 μL of each of the daughter solutions obtained containing compound B are added to the microplate wells. 100 μL of Sabouraud liquid nutrient broth seeded at double concentration with the strain Aspergillus niger are also added thereto.
(§10) A positive microbial growth control was also prepared. The positive microbial growth control corresponds to a mixture of 100 μL of aqueous 1% agar solution with 100 μL of Sabouraud liquid nutrient broth seeded at double concentration with the strain Aspergillus niger in the absence of compounds A and B.
(§11) An absorbance control was performed in parallel on compounds A and B alone. This control corresponds to 100 μL of double concentration sterile Sabouraud liquid nutrient broth+100 μL of double concentration compound A or B.
(§12) The test as described above (tests, absorbance control and growth control) was performed again to test the combination A+B on the strains Candida albicans and Pseudomonas aeruginosa.

The test system of experiment [2] is Aspergillus niger ATCC 6275. Description: MIC / synergy (FIC index) microplate growth test, optical density at 620 nm, Aspergillus niger.
Source text: as §1, §2, §3, §4
The microbial strain Aspergillus niger ATCC 6275, and a double-concentration Sabouraud broth liquid culture medium supplemented with polyoxyethylenated (20 OE) sorbitan monopalmitate (Tween 40 from Croda) and Phytagel© BioReagent were used.
as §5, §6, §7, §8, §9, §10, §11
In the two cases (test and control), the inoculum represents the concentration of the strain Aspergillus niger present in the final volume of the wells (200 μL) and is between 2 and 6×10^5 cfu/ml of Aspergillus niger.

In experiment [3] the test system is Candida albicans ATCC 10231. Description: MIC / synergy (FIC index) microplate growth test, optical density at 620 nm, Candida albicans.
Source text: as §1, §2, §3, §4
The microbial strain Candida albicans ATCC 10231 and a double-concentration Sabouraud broth liquid culture medium were used.
as §5, §6, §7, §8, §9, §10, §11, §12

Setting [4] is: weight %, first concentration giving growth <= 25%.

Molecules are shown by their SMILES.

In the case of `CCCCCCCCCCCCCCCCCCCCCC[N+](C)(C)C.[Cl-]` [B1, behenyltrimethylammonium chloride], the microbial growth percentage in experiment [1] (B1 0.001975 weight % alone) came to 68%; in experiment [1] (B1 0.00395 weight % alone), 93%; in experiment [1] (B1 0.0079 weight % alone), 36%; in experiment [1] (B1 0.0158 weight % alone), 30%; in experiment [1] (B1 0.0316 weight % alone), 1%; in experiment [2] (B1 0.049 weight % alone), 186%. The microbial growth percentage in experiment [2] (B1 0.1 weight % alone) amounted to 155%; in experiment [2] (B1 0.2 weight % alone), 78%; in experiment [2] (B1 0.4 weight % alone), 34%; in experiment [2] (B1 0.79 weight % alone), 8%; in experiment [3] (B1 0.002 weight % alone) it was 50%; in experiment [3] (B1 0.00395 weight % alone), 1%. Besides, the “% MIC of B1 alone” value in experiment [1] (setting [4]) amounted to 0.0316%; in experiment [2] (setting [4]), 0.79%; in experiment [3] (setting [4]), 0.00395%.
Turning to `CCOc1cc(CCC(C)=O)ccc1O` [A, 4-(3-ethoxy-4-hydroxyphenyl)butan-2-one], the microbial growth percentage is given as 114% in experiment [1] (A 0.0625 weight % alone); 59% in experiment [1] (A 0.125 weight % alone); 65% in experiment [1] (A 0.25 weight % alone); 41% in experiment [1] (A 0.5 weight % alone); 15% in experiment [1] (A 1 weight % alone); 150% in experiment [2] (Example 1, A 0.025 weight % alone). In addition, the microbial growth percentage in experiment [2] (Example 1, A 0.05 weight % alone) is recorded as 113%; in experiment [2] (Example 1, A 0.1 weight % alone), 112%; in experiment [2] (Example 1, A 0.2 weight % alone) it was 75%; in experiment [2] (Example 1, A 0.4 weight % alone), 5%; in experiment [2] (Example 2, A 0.025 weight % alone), 212%; in experiment [2] (Example 2, A 0.05 weight % alone) it was 92%. The microbial growth percentage in experiment [2] (Example 2, A 0.1 weight % alone) was 68%; in experiment [2] (Example 2, A 0.2 weight % alone) it was 29%; in experiment [2] (Example 2, A 0.4 weight % alone), 17%; in experiment [3] (A 0.025 weight % alone) it was 73%; in experiment [3] (A 0.05 weight % alone) it was 73%; in experiment [3] (A 0.1 weight % alone), 49%. For the same compound, in experiment [3] (A 0.2 weight % alone), the microbial growth percentage amounted to 9%. The “% MIC of A alone” value in experiment [1] (setting [4]) turned out to be 1%; in experiment [2] (Example 1, weight %, first concentration giving growth <= 25%), 0.4%; in experiment [2] (Example 2, weight %, first concentration giving growth <= 25%), 0.4%; in experiment [3] (setting [4]), 0.2%.
